Four compounds from publication PMC11912728, “L-asparaginase from the novel Fusarium falciforme AUMC 16563: extraction, purification, characterization, and cytotoxic effects on PC-3, HePG-2, HCT-116, and MCF-7 cell lines” (BMC Microbiology, 2025) can be followed below.

This test deals with T1, L-asparaginase (pure asparaginase) from Fusarium falciforme AUMC 16563.
T1 construct: native extracellular enzyme purified from culture supernatant (ethanol, DEAE-cellulose, Sephacryl S-200 HR)
In words: Nesslerization (ammonia release, […] nm), Lineweaver-Burk. In kind it is biochemical. The following applies: substrate 2.0-20.0 mM; pH and temperature of the kinetic assay not given.
With `NC(=O)C[C@H](N)C(=O)O` [L-asparagine], the Km – broadly, the concentration of substrate that gives half-maximal velocity – amounted to 0.0577 mM.

With `NC(=O)CC[C@H](N)C(=O)O` [L-glutamine], the Michaelis constant (Km) is 9.12 mM.

Consider `N[C@@H](CC(=O)O)C(=O)O` [aspartic acid], for which the Km is 10.1 mM.

With `N[C@@H](CCC(=O)O)C(=O)O` [glutamic acid], the Michaelis-Menten constant (Km) turned out to be 12.2 mM.
